Molecules are shown by their SMILES. pIC50: −log10 of the molar value.

Data set [1] relates to KB (epidermoid carcinoma of the nasopharynx). As to the kind of experiment: SRB antiproliferative assay, KB. As to conditions: for pIC50: read-out: IC50 KB, 72 h; for IC50 KB: 72 h. The class given is cell-based, human. (In general: The SRB assay estimates cell density from bound dye.)
Data set [2] has as its system KB-VIN (P-gp-overexpressing MDR subline of KB). As to the kind of experiment: SRB antiproliferative assay, KB-VIN. The format is cell-based, human. As to conditions: for pIC50: read-out: IC50 KB-VIN, 72 h.
Data set [3] has as its system PC-3 (prostate cancer). The data set can be described thus: SRB antiproliferative assay, PC-3. The format is cell-based, human. As to conditions: for pIC50: read-out: IC50 PC-3; for pIC50 / IC50 PC-3: SRB, 72 h.
Data set [4] deals with A549 (lung carcinoma). As to the kind of experiment: SRB antiproliferative assay, A549. As to conditions: for pIC50: read-out: IC50 A549, 72 h; for IC50 A549: 72 h. The format is cell-based, human.
Data set [5] concerns HepG2 (hepatocellular carcinoma). As to the kind of experiment: SRB antiproliferative assay, HepG2. The format is cell-based, human. To be noted: for IC50 Hep-G2: 72 h; for pIC50: read-out: IC50 Hep-G2, 72 h.
In data set [6] the test system is HCT-8 (human colon adenocarcinoma). The data set can be described thus: SRB antiproliferative assay, HCT-8. To be noted: for IC50 HCT-8 / pIC50: SRB, 72 h; for pIC50: read-out: IC50 HCT-8. The format is cell-based.
Data set [7] relates to MDA-MB-231 (triple-negative breast cancer). The data set can be described thus: SRB antiproliferative assay, MDA-MB-231. The class given is cell-based, human. To be noted: read-out: IC50 MDA-MB-231, 72 h.
Data set [8] relates to SK-BR-3 (HER2-overexpressing breast cancer). As to the kind of experiment: SRB antiproliferative assay, SK-BR-3. The class given is cell-based, human. As to conditions: for pIC50: read-out: IC50 SK-BR3, 72 h.
The test system of data set [9] is MCF-7 (estrogen-receptor-positive, HER2-negative breast cancer). As to the kind of experiment: SRB antiproliferative assay, MCF-7. The format is cell-based, human. To be noted: read-out: IC50 MCF-7, 72 h.
Data set [10] concerns ZR-75-1 (estrogen-receptor-positive, HER2-positive breast cancer). The data set can be described thus: SRB antiproliferative assay, ZR-75-1. The class given is cell-based, human. To be noted: read-out: IC50 ZR-75-1, 72 h.
Data set [11] concerns KB cells. The data set can be described thus: Cell cycle analysis by flow cytometry. The class given is cell-based, human. To be noted: 6 or 24 h, PXL 0.02 µM, 4 0.5 µM, 8 2 µM.
The test system of data set [12] is KB-VIN cells. The data set can be described thus: Cell cycle analysis by flow cytometry. To be noted: 6 or 24 h, PXL 3 µM, 4 0.5 µM, 8 2 µM. The format is cell-based, human.
The subject of data set [13] is PC-3 cells. The data set can be described thus: Immunofluorescence staining of microtubules in PC-3 cells. The class given is cell-based, human. As to conditions: PC-3, 24 h; for microtubule morphology: equitoxic concentrations: 0.2 µM 4, 0.2 µM CA-4, 5 µM VIN, 0.2 µM PXL; for dose-dependent effects on microtubule morphology: compounds 0.2, 2 or 20 µM, CA-4 0.002 or 20 µM.

Data set [14] addresses T1, bovine brain tubulin (Bos taurus, UniProt P81947+Q6B856). As to the kind of experiment: Inhibition of [3H]colchicine binding to tubulin. To be noted: for ICB, percent inhibition of colchicine binding: 5 µM [3H]colchicine, 1 µM tubulin, 5 µM test compound.
Data set [15] deals with human tumor cell lines. The data set can be described thus: SRB antiproliferative assay, comparison across tumor cell lines. The format is cell-based.
The target in data set [16] is T1, bovine brain tubulin. The data set can be described thus: Inhibition of purified tubulin assembly. The format is biochemical.
Data set [17] relates to KB-VIN cells. The data set can be described thus: Tubulin assembly in KB-VIN cells. The format is cell-based, human. To be noted: data not shown.
Data set [18] concerns tumor cell lines overexpressing P-gp. To be noted: cited from earlier work.
Data set [19] concerns PC-3 cells. As to the kind of experiment: Cell cycle analysis by flow cytometry. The format is cell-based, human. As to conditions: 2 µM, 24 h. (In general: In flow cytometry, cells or beads pass a laser one at a time.)

T1 sequence (P81947 whole entry): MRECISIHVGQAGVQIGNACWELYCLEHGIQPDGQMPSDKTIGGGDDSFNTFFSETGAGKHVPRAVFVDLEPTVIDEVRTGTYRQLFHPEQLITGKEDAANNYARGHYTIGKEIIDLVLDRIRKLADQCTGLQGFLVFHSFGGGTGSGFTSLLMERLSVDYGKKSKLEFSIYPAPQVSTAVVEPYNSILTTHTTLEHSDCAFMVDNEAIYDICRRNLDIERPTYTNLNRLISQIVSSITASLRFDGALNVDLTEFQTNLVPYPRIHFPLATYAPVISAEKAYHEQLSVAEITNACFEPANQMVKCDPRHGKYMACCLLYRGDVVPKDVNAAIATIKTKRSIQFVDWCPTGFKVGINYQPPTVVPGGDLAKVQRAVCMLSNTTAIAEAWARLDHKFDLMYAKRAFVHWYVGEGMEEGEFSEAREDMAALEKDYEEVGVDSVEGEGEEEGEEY
T1 sequence (Q6B856 whole entry): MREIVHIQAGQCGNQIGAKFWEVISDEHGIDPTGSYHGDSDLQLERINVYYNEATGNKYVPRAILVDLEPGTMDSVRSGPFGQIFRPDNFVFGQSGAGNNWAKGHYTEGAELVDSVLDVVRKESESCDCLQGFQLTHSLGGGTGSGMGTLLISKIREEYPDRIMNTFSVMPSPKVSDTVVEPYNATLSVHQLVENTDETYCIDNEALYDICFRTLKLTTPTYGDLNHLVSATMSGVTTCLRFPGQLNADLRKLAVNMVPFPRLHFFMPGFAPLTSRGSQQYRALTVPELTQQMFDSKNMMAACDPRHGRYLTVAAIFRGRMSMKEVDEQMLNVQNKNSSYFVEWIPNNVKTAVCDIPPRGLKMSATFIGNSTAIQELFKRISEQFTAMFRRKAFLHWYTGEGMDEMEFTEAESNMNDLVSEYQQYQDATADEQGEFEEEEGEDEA

Take `CCC1=C(O)c2c(oc(-c3csc4c(OC)cccc34)cc2=O)C(CC)(CC)C1=O` [Compound 12, 2-(7′-Methoxybenzo[b]thiophen-3′-yl)-6,8,8-triethyldes-mosdumotin B]: the pIC50 (in general, −log10 of the IC50, conventionally taken in molar units) in data set [1] is 4.92; in data set [2], 4.97; in data set [3], 5.07; in data set [4], 4.80; in data set [7], 5.09; in data set [8], 5.10. Further, the pIC50 in data set [9] is 5.14; in data set [10] it was 5.01. The “IC50 Hep-G2” value in data set [5] was “NA (NA, not active (IC50 > 10 µg/mL))”. In data set [6], the “IC50 HCT-8” value is listed as “NA (NA, not active (IC50 > 10 µg/mL))”.
With `CC(=O)O[C@H]1C(=O)[C@@]2(C)[C@H]([C@H](OC(=O)c3ccccc3)[C@]3(O)C[C@H](OC(=O)[C@H](O)[C@@H](NC(=O)c4ccccc4)c4ccccc4)C(C)=C1C3(C)C)[C@]1(OC(C)=O)CO[C@@H]1C[C@@H]2O` [PXL, paclitaxel, reference compound], the “effect on cell cycle distribution” value in [11] was “significantly impacted the cell cycle”; in [12], “did not show any effect”. Besides, the microtubule morphology entry in data set [13] was “inhibited the onset of mitosis and arrested cells at prometaphase with condensed chromosomes”.
As to `CCC1=C(O)c2c(oc(-c3csc4cc(O)ccc34)cc2=O)C(CC)(CC)C1=O` [Compound 8, 2-(6′-Hydroxybenzo[b]thiophen-3′-yl)-6,8,8-triethyldesmos-dumotin B], in data set [14], the “ICB, percent inhibition of colchicine binding” value (“ICB, percent inhibition” below) came out at 39%.
For the molecule `CCC1=C(O)c2c(oc(-c3csc4cccc(OC)c34)cc2=O)C(CC)(CC)C1=O` [Compound 10, 2-(4′-Methoxybenzo[b]thiophen-3′-yl)-6,8,8-triethyldes-mosdumotin B], in data set [1], the “IC50 KB” value was “NA ^e (NA, not active (IC50 > 10 µg/mL))”. The pIC50 in [2] is 4.93; in [8] it was 4.73. In data set [3], the “IC50 PC-3” value is “NA (NA, not active (IC50 > 10 µg/mL))”. In data set [4], the “IC50 A549” value was “NA (NA, not active (IC50 > 10 µg/mL))”. In data set [5], the “IC50 Hep-G2” value is “NA (NA, not active (IC50 > 10 µg/mL))”. The “IC50 HCT-8” value in data set [6] is recorded as “NA (NA, not active (IC50 > 10 µg/mL))”.
In the case of `COc1ccc(/C=C\c2cc(OC)c(OC)c(OC)c2)cc1O` [CA-4, combretastatin A-4, reference compound], in data set [13], the microtubule morphology result was “both depolymerization of interphase microtubules and disruption of mitotic spindles”; the “dose-dependent effects on microtubule morphology” value was “Dose-dependent disruption of both interphase microtubules and spindles”.
Regarding `CCC1=C(O)c2c(oc(-c3ccc(O)c4ccccc34)cc2=O)C(CC)(CC)C1=O` [Compound 16, 2-(4′-Hydroxynaphthalen-1′-yl)-6,8,8-triethyldesmosdumo-tin B], the pIC50 is 6.13 in [1]; 6.35 in data set [2]; 5.95 in data set [3]; 6.03 in [4]; 6.43 in [5]; 5.99 in [6]. The “ICB, percent inhibition” value in data set [14] came to 54%. The “antiproliferative effect, times greater than parent compound 5” value in data set [15] (HepG2, KB and KB-VIN) is reported as 2–6 times.
Take `CC[C@]1(O)C[C@H]2CN(CCc3c([nH]c4ccccc34)[C@@](C(=O)OC)(c3cc4c(cc3OC)N(C=O)[C@H]3[C@@](O)(C(=O)OC)[C@H](OC(C)=O)[C@]5(CC)C=CCN6CC[C@]43[C@@H]65)C2)C1` [VIN, vincristine, reference compound]: the microtubule morphology entry in data set [13] is given as “tubulin paracrystal formation”.
For `CCC1=C(O)c2c(oc(-c3csc4ccc(O)cc34)cc2=O)C(CC)(CC)C1=O` [Compound 7, 2-(5′-Hydroxybenzo[b]thiophen-3′-yl)-6,8,8-triethyldesmos-dumotin B], in [14], the “ICB, percent inhibition” value is 32%.
`CC1=C(O)C(C)(C)c2oc(-c3ccccc3)cc(=O)c2C1=O` [Compound 1, Desmosdumotin B, reference compound]: the pIC50 in data set [1] was less than 3.87; in data set [2], 5.17; in [3] it was less than 4.40; in data set [4], less than 4.40; in data set [7], less than 4.40; in [8], less than 4.40. The pIC50 in data set [9] and in data set [10] was less than 4.40 in each case. Also, the “ITA, inhibition of purified tubulin assembly, EC50” value in data set [16] (10 µM tubulin, 0.4 mM GTP, 30 °C, NA = not active) is reported as “no effects on tubulin assembly”. For the same molecule, in data set [17], the “effect on tubulin assembly in cells” value is “no effects on tubulin assembly”. Further, the “selective index (SI), IC50 against non-MDR cells divided by IC50 against MDR cells” value in data set [18] was greater than 20.
As to `CCC1=C(O)c2c(oc(-c3csc4ccc(OC)cc34)cc2=O)C(CC)(CC)C1=O` [Compound 11, 2-(5′-Methoxybenzo[b]thiophen-3′-yl)-6,8,8-triethyldes-mosdumotin B], in data set [1], the “IC50 KB” value is listed as “NA (NA, not active (IC50 > 10 µg/mL))”. The “IC50 KB-VIN” value in data set [2] (72 h) is on record as “NA (NA, not active (IC50 > 10 µg/mL))”. The “IC50 PC-3” value in data set [3] is “NA (NA, not active (IC50 > 10 µg/mL))”. Besides, the “IC50 A549” value in data set [4] was “NA (NA, not active (IC50 > 10 µg/mL))”. Also, in [5], the “IC50 Hep-G2” value is reported as “NA (NA, not active (IC50 > 10 µg/mL))”. The pIC50 in data set [6] is 4.79. The “IC50 SK-BR3” value in data set [8] (72 h) was “NA (NA, not active (IC50 > 10 µg/mL))”.
Regarding `CCC1=C(O)c2c(oc(-c3ccc4cc(O)ccc4c3)cc2=O)C(CC)(CC)C1=O` [Compound 19, 2-(6′-Hydroxynaphthalen-2′-yl)-6,8,8-triethyldesmosdumo-tin B], the pIC50 in data set [1] was 4.70; in data set [2] it was 4.86; in data set [3], 4.89; in data set [4], 4.83; in [5] it was 4.87; in data set [6], 4.85. In addition, the pIC50 in [8] was 4.86. Also, the “fold less active than 15 and 16” value in [15] (generally, over the tested cell lines) was roughly 10 fold.
As for `CCC1=C(O)c2c(oc(-c3sc4ccccc4c3O)cc2=O)C(CC)(CC)C1=O` [Compound 14, 2-(3′-Hydroxybenzo[b]thiophen-2′-yl)-6,8,8-triethyldesmos-dumotin B], the pIC50 in data set [1] was 4.71; in data set [2], 5.18; in data set [3], 4.84; in data set [4] it was 4.90; in data set [5] it was 4.80; in data set [6], 4.78. For the same molecule, in [8], the pIC50 is 4.92. Besides, the “fold reduced activity against PC-3” value in data set [3] (compared with parent compound 13) was 4 fold.
Turning to `CCC1=C(O)c2c(oc(-c3ccccc3)cc2=O)C(CC)(CC)C1=O` [Compound 2, 6,8,8-triethyldesmosdumotin B], in data set [18], the “selective index (SI), IC50 against non-MDR cells divided by IC50 against MDR cells” value was greater than 220.
Take `CCC1=C(O)c2c(oc(-c3csc4cccc(O)c34)cc2=O)C(CC)(CC)C1=O` [Compound 6, 2-(4′-Hydroxybenzo[b]thiophen-3′-yl)-6,8,8-triethyldesmos-dumotin B]: the pIC50 in data set [1] was 5.70; in data set [3], 5.76; in data set [4] it was 5.75; in [5], 5.89; in data set [6], 5.77; in data set [7], 6.15. Also, the pIC50 is 6.19 in data set [8], 5.56 in [9] and 4.94 in [10]. Besides, the “inhibitory effect on tubulin assembly, fold greater than 8” value in data set [16] (6 compared with 8) stood at 2 fold. The “ICB, percent inhibition” value in data set [14] amounted to 70%. In addition, in data set [14] (6 compared with 8), the “inhibitory effect on colchicine binding, fold greater than 8” value is 2 fold. Besides, the “effect on cell cycle distribution” value in data set [19] is recorded as “efficiently induced accumulation of G2/M phase cells”. In addition, the “dose-dependent effects on microtubule morphology” value in data set [13] was “Dose-dependent disruption of both interphase microtubules and spindles”.
`CCC1=C(O)c2c(oc(-c3csc4c(O)cccc34)cc2=O)C(CC)(CC)C1=O` [Compound 9, 2-(7′-Hydroxybenzo[b]thiophen-3′-yl)-6,8,8-triethyldesmos-dumotin B]: the pIC50 in data set [1] was 5.89; in data set [2], 5.95; in data set [3] it was 5.83; in [4] it was 5.69; in data set [5], 5.52; in data set [6], 4.97. The “fold reduced inhibitory effect against HCT-8” value in data set [6] (compared with 6 and 8) is “more than 5 fold”. For the same molecule, the “ICB, percent inhibition” value in data set [14] was determined as 37%. Moreover, the “effect on cell cycle distribution” value in data set [19] is “efficiently induced accumulation of G2/M phase cells”. Besides, the “dose-dependent effects on microtubule morphology” value in data set [13] was “Dose-dependent disruption of both interphase microtubules and spindles”.

(Values after PMC4394749 (Journal of medicinal chemistry, 2015).)
